# Columns and labels:
# Assay type in all cases: cell-based
# [1] = tested on: K. pneumoniae 667; test: Bacterial growth curves; conditions: β,β-Dim 4 µg/mL, colistin 0.5 µg/mL, alone or combined; 24 h
# Procedure: Overnight cultures of K. pneumoniae 667 and E. coli 13f4 were diluted to 10^6 CFU/mL; then, β,β-Dim (4 μg/mL), colistin (0.5 or 2 μg/mL), and their combination were co-incubated with bacterial suspensions in a 96-well plate. OD600 values were monitored hourly over a 24 h period.
# [2] = tested on: K. pneumoniae, E. coli, Salmonella, P. aeruginosa, and A. baumannii; test: Checkerboard assay, panel of tested strains (summary statements)
# Procedure: (§1) The FICI of β,β-Dim–colistin combination was determined by a checkerboard assay. Briefly, two-fold serial dilutions of β,β-Dim and colistin were prepared in a 96-well plate. After incubation at 37 °C for 18 h with bacterial suspension (10^6 CFU/mL), OD600 values were measured. FICI = (MICβ,β-Dim in combination/MICβ,β-Dim) + (MICcolistin in combination/MICcolistin). The synergistic effect of β,β-Dim with other antibiotics was measured in the same way. Synergy was considered to be an FICI ≤ 0.5.
# [3] = tested on: S. Typhimurium 9891(mcr-1); test: Checkerboard assay (MIC, FICI)
# Procedure: as §1
# [4] = tested on: K. pneumoniae 492(mcr-1、blaNDM); test: Checkerboard assay (MIC, FICI)
# Procedure: as §1
# [5] = tested on: P. aeruginosa 9(mcr-1); test: Checkerboard assay (MIC, FICI)
# Procedure: as §1
# [6] = tested on: K. pneumoniae 126(mcr-8); test: Checkerboard assay (MIC, FICI)
# Procedure: as §1
# [7] = tested on: K. pneumoniae 20(mcr-1); test: Checkerboard assay (MIC, FICI)
# Procedure: as §1
# [8] = tested on: E. coli BW25113-184; test: Checkerboard assay (MIC, FICI)
# Procedure: as §1
# [9] = tested on: E. coli ATCC 25922; test: Checkerboard assay (MIC, FICI)
# Procedure: as §1
# [10] = tested on: A. baumannii ATCC 19606; test: Checkerboard assay (MIC, FICI)
# Procedure: as §1
# [11] = tested on: E. coli BW25113-pmrAD82N(pmrA); test: Checkerboard assay (MIC, FICI)
# Procedure: as §1
# [12] = tested on: K. pneumoniae 251(mgrB、phoP、pmrA、blaKPC); test: Checkerboard assay (MIC, FICI)
# Procedure: as §1
# [13] = tested on: E. coli ZJ71(mcr-1); test: Checkerboard assay (MIC, FICI)
# Procedure: as §1
# [14] = tested on: K. pneumoniae 197(mcr-1、blaNDM); test: Checkerboard assay (MIC, FICI)
# Procedure: as §1
# [15] = tested on: K. pneumoniae 667(phoP、pmrA、blaKPC); test: Checkerboard assay (MIC, FICI)
# Procedure: as §1
# [16] = tested on: S. Typhimurium ATCC 14028; test: Checkerboard assay (MIC, FICI)
# Procedure: as §1
# [17] = tested on: E. coli pHSG299-mcr-3; test: Checkerboard assay (MIC, FICI)
# Procedure: as §1
# [18] = tested on: E. coli BW25113-184-mcr-1; test: Checkerboard assay (MIC, FICI)
# Procedure: as §1
# [19] = tested on: K. pneumoniae 29(mcr-8、pmrB、blaNDM); test: Checkerboard assay (MIC, FICI)
# Procedure: as §1
# [20] = tested on: K. pneumoniae 109(mcr-8); test: Checkerboard assay (MIC, FICI)
# Procedure: as §1
# [21] = tested on: P. aeruginosa PAO1; test: Checkerboard assay (MIC, FICI)
# Procedure: as §1
# [22] = tested on: K. pneumoniae ATCC 13883; test: Checkerboard assay (MIC, FICI)
# Procedure: as §1
# [23] = tested on: K. pneumoniae 57(mcr-9、blaNDM); test: Checkerboard assay (MIC, FICI)
# Procedure: as §1
# [24] = tested on: K. pneumoniae 650(mgrB、phoP、pmrA、blaKPC); test: Checkerboard assay (MIC, FICI)
# Procedure: as §1
# [25] = tested on: E. coli 13f4(mcr-1); test: Checkerboard assay (MIC, FICI)
# Procedure: as §1
# [26] = tested on: E. coli BW25113-pmrBR93P(pmrB); test: Checkerboard assay (MIC, FICI)
# Procedure: as §1
# [27] = Klebsiella pneumoniae, read-out: MIC of β,β-Dim
# [28] = Escherichia coli, BW25113, read-out: MIC of β,β-Dim
# [29] = Escherichia coli, read-out: MIC of β,β-Dim
smiles,measurement,setting,value
"CC(C)=CC[C@H](OC(=O)C=C(C)C)C1=CC(=O)c2c(O)ccc(O)c2C1=O [β,β-Dim, β,β-dimethylacrylalkannin]",bacterial growth (growth curves),[1],"neither β,β-Dim (4 µg/mL) nor colistin (0.5 µg/mL) alone inhibited the growth"
same,antibacterial activity against Gram-negative bacteria,"[2]; β,β-Dim alone",did not exhibit antibacterial activity
same,FICI,"[2]; β,β-Dim with colistin, summary over tested strains",< 0.5
same,"MIC of β,β-Dim [Combination]","[3]; 9891, with colistin",8 µg/mL
same,MIC,"[3]; Salmonella enterica, TYPHIMURIUM, read-out: MIC of β,β-Dim",> 128 µg/mL
same,"MIC of β,β-Dim [Combination]","[4]; 492, with colistin",2 µg/mL
same,MIC,[4]; [27],> 128 µg/mL
same,"MIC of β,β-Dim [Combination]","[5]; P. aeruginosa 9, with colistin",16 µg/mL
same,MIC,"[5]; Pseudomonas aeruginosa, read-out: MIC of β,β-Dim",> 128 µg/mL
same,"MIC of β,β-Dim [Combination]","[6]; 126, with colistin",8 µg/mL
same,MIC,[6]; [27],> 128 µg/mL
same,"MIC of β,β-Dim [Combination]","[7]; 20(mcr-1), with colistin",4 µg/mL
same,MIC,[7]; [27],> 128 µg/mL
same,"MIC of β,β-Dim [Combination]","[8]; BW25113-184, with colistin",2 µg/mL
same,MIC,[8]; [28],> 128 µg/mL
same,"MIC of β,β-Dim [Combination]","[9]; 25922, with colistin",2 µg/mL
same,MIC,"[9]; Escherichia coli, ATCC25922, read-out: MIC of β,β-Dim",> 128 µg/mL
same,"MIC of β,β-Dim [Combination]","[10]; 19606, with colistin",4 µg/mL
same,MIC,"[10]; Acinetobacter baumannii, ATCC19606, read-out: MIC of β,β-Dim",> 128 µg/mL
same,"MIC of β,β-Dim [Combination]","[11]; BW25113-pmrAD82N, with colistin",8 µg/mL
same,MIC,[11]; [28],> 128 µg/mL
same,"MIC of β,β-Dim [Combination]","[12]; 251, with colistin",4 µg/mL
same,MIC,[12]; [27],> 128 µg/mL
same,MIC,[13]; [29],> 128 µg/mL
same,"MIC of β,β-Dim [Combination]","[13]; ZJ71, with colistin",4 µg/mL
same,"MIC of β,β-Dim [Combination]","[14]; 197, with colistin",8 µg/mL
same,MIC,[14]; [27],> 128 µg/mL
same,"MIC of β,β-Dim [Combination]","[15]; 667, with colistin",2 µg/mL
same,MIC,[15]; [27],> 128 µg/mL
same,"MIC of β,β-Dim [Combination]","[16]; 14028, with colistin",0.5 µg/mL
same,MIC,"[16]; Salmonella enterica, read-out: MIC of β,β-Dim",> 128 µg/mL
same,MIC,"[17]; Escherichia coli, PHSG299MCR3, read-out: MIC of β,β-Dim",> 128 µg/mL
same,"MIC of β,β-Dim [Combination]","[17]; pHSG299-mcr-3, with colistin",8 µg/mL
same,"MIC of β,β-Dim [Combination]","[18]; BW25113-184-mcr-1, with colistin",4 µg/mL
same,MIC,[18]; [28],> 128 µg/mL
same,"MIC of β,β-Dim [Combination]","[19]; 29, with colistin",4 µg/mL
same,MIC,[19]; [27],> 128 µg/mL
same,"MIC of β,β-Dim [Combination]","[20]; 109, with colistin",4 µg/mL
same,MIC,[20]; [27],> 128 µg/mL
same,"MIC of β,β-Dim [Combination]","[21]; PAO1, with colistin",2 µg/mL
same,MIC,"[21]; Pseudomonas aeruginosa, PAO1, read-out: MIC of β,β-Dim",> 128 µg/mL
same,"MIC of β,β-Dim [Combination]","[22]; 13883, with colistin",2 µg/mL
same,MIC,"[22]; Klebsiella pneumoniae, ATCC13883, read-out: MIC of β,β-Dim",> 128 µg/mL
same,"MIC of β,β-Dim [Combination]","[23]; 57, with colistin",8 µg/mL
same,MIC,[23]; [27],> 128 µg/mL
same,"MIC of β,β-Dim [Combination]","[24]; 650, with colistin",8 µg/mL
same,MIC,[24]; [27],> 128 µg/mL
same,"MIC of β,β-Dim [Combination]","[25]; 13f4, with colistin",4 µg/mL
same,MIC,[25]; [29],> 128 µg/mL
same,"MIC of β,β-Dim [Combination]","[26]; BW25113-pmrBR93P, with colistin",8 µg/mL
same,MIC,[26]; [28],> 128 µg/mL

# Source: publication PMC12837263, “β,β-Dimethylacrylalkannin Restores Colistin Efficacy Against mcr- and TCS-Mediated Resistant Gram-Negative Bacteria via Membrane Disturbance” (Antibiotics, 2025)
